Source: patent US5538973A, “Imidazole derivative, pharmaceutical use thereof, and intermediate therefor” (Kyoto Pharmaceutical Industries, Ltd., priority 1992, dated 1996)
Counter-ions that a name gives are not always drawn. Like-named read-outs stand apart in the source and are kept apart here.

Assays:
[1] = tested on: airway contraction by histamine; assay: Inhibitory action on contraction of respiratory tract by histamine (Konzett and Roessler method); format: in vivo, guinea pig; conditions: for inhibition in vivo at 30 mg/kg: Cavia porcellus, po, 1 h, read-out: Exp. 4-1 % at which the test compound suppressed airway contraction by histamine
Description: (§1) A respiratory tract contraction (histamine, LTD4) was intravenously administered to anesthetized guinea pig, and a change in airway resistance was measured in accordance with Konzett end Roessler method. The test drug was orally administered 1 hour before the administration of the contraction inducing agent.
(§2) The experiments 1-4 described above were conducted using the compounds of Examples 1, 2, 6, 8, 12, 14, 19, 23, 27, 30, 34, and 35 to be mentioned below, compound (V), and Terfenadine, the results of which are shown in Table 1.
(§3) **% at which the test compound (30 mg/kg, p.o.) suppressed airway
(§4) contraction by histamine (41) or LTD4 (42)

[2] = tested on: contraction of lung parenchymal specimen by histamine; assay: Antihistaminic action: contraction of lung parenchymal specimen caused by histamine; format: cell-based; conditions: test compound 10^-5 M, histamine 10^-5 M, guinea pig lung parenchyma; for inhibition at 10 µM: Cavia porcellus, read-out: Exp. 3 % at which the test compound suppressed contraction by histamine
Description: A lung parenchymal specimen extracted from guinea pig was hung in a nutritive solution at 37° C., and applied a load of 0.5 g. Contraction caused by histamine under aeration of 95% O2 +5% CO2 was recorded isometrically. The inhibition by the test drug with respect to the dose-reaction curve by histamine at 10^-7 -10^-4 was examined.
as §2
*% at which the test compound (10^-5 M) suppressed contraction by […]

[3] = tested on: blood platelet aggregation; assay: Inhibitory action on blood platelet aggregation (arachidonic acid aggregation in rich platelet plasma, nephelometry); format: cell-based; conditions: arachidonic acid 0.1 mM, test drug added 1 minute before, read-out: Exp. 2 (IC50) inhibitory action on blood platelet aggregation
Description: Arachidonic acid aggregation in rich platelet plasma was determined by nephelometry. The test drug was added 1 minute before the addition of the arachidonic acid (0.1 mM).
as §2

[4] = tested on: airway contraction by LTD4; assay: Inhibitory action on contraction of respiratory tract by LTD4 (Konzett and Roessler method); format: in vivo, guinea pig; conditions: for inhibition in vivo at 30 mg/kg: Cavia porcellus, po, 1 h, read-out: Exp. 4-2 % at which the test compound suppressed airway contraction by LTD4
Description: as §1, §2, §3, §4

[5] = tested on: synthesis of TXA2; assay: Inhibitory action on synthesis of TXA2 (PGH2 substrate, aspirin-treated platelets, TXB2 by RIA); format: cell-based; conditions: Platelet, read-out: Exp. 1 (IC50) inhibitory action on synthesis of TXA2
Description: Prostaglandin H2 (PGH2) was added as a substrate to an aspirin-treated platelet floating solution, and the mixture was incubated at 37° C. The resultant TXA2 was converted to TXB2, and measured by RIA method. The test drug was added 10 minutes before the addition of PGH2.
as §2

[6] = tested on: male ddy mice; assay: Acute toxicity, oral, male ddy mice; format: in vivo; conditions: 1000 mg/20 ml/kg orally, 5 male ddy mice
Description: The compound of Example 6 was suspended in a 5% gum arabic solution and orally administered to 5 male ddy mice at 1000 mg/20 ml /kg.

[7] = 30 mg/kg, p.o., 1 hour before histamine i.v., anesthetized guinea pig
[8] = 30 mg/kg, p.o., 1 hour before LTD4 i.v., anesthetized guinea pig
[9] = test drug added 10 minutes before PGH2, 37° C.

| IC50 ([3]; Platelet) [µM] | Compound | inhibition in vivo at 30 mg/kg [1, 7] [%] | inhibition at 10 µM [2] [%] | inhibition in vivo at 30 mg/kg [4, 8] [%] | inhibition in vivo at 30 mg/kg [1] [%] | inhibition in vivo at 30 mg/kg [4] [%] | also measured |
| --- | --- | --- | --- | --- | --- | --- | --- |
| 4.4 | O=C(COCCN1CCN(C(c2ccccc2)c2ccccc2)CC1)N1CCc2cc(-n3ccnc3)ccc21 [Example 1, 1-[2-(4-benzhydryl-1-piperazinyl)ethoxyacetyl]-5-(1H-imidazol-1-yl)indoline oxalate] | 100 | 95 | 73 |  |  |  |
| > 100 | c1ccc(CC2CCN(CCn3ccc4cc(-n5ccnc5)ccc43)CC2)cc1 [Example 27] | 100 | 58 | 68 |  |  |  |
| > 100 | O=C(O)c1ccc2c(c1)c(CCn1ccnc1)cn2CCCN1CCC(Cc2ccccc2)CC1 [Example 34] | 90 | 58 | 31 |  |  |  |
| 54 | O=C(O)C=Cc1ccc(Cn2ccnc2)cc1 [Compound (V), reference compound] | 4 | 8 | 57 |  |  | IC50 [5, 9]: 1.5 µM |
|  | O=C(O)c1cc2cc(Cn3ccnc3)ccc2n1CCCN1CCN(C(c2ccccc2)c2ccccc2)CC1 [Example 23] |  |  |  |  |  | Exp. 4-1 % at which the test compound suppressed airway contraction by histamine [1, 7]: 94%; Exp. 3 % at which the test compound suppressed contraction by histamine ([2]; 10 µM): 94%; IC50 ([3]; listed as Ex. 23): 34 µM; Exp. 4-2 % at which the test compound suppressed airway contraction by LTD4 [4, 8]: 53% |
| 9.9 | O=C(O)c1ccc2c(Cn3ccnc3)cn(CCCN3CCC(Cc4ccccc4)CC3)c2c1 [Example 30] | 100 | 100 | 26 |  |  |  |
|  | Cl.Cl.Cl.O=C(O)c1cc2cc(Cn3ccnc3)ccc2n1CCCN1CCN(C(c2ccccc2)c2ccccc2)CC1 [Example 6, 1-[3-(4-benzhydryl-1-piperazinyl)propyl]-5-(1H-imidazol-1-ylmethyl)-1H-indole-2-carboxylic acid trihydrochloride] | 100 | 100 |  |  |  | IC50 [5, 9]: 0.4 µM; IC50 ([3]; listed as Ex. 6, trihydrochloride): 8.1 µM; death [6]: No death was observed; Exp. 4-2 % at which the test compound suppressed airway contraction by LTD4 [4, 8]: 75% |
| 21 | c1ccc(C(c2ccccc2)N2CCN(CCCn3ccc4cc(-n5ccnc5)ccc43)CC2)cc1 [Example 19] | 94 | 45 | 40 |  |  |  |
|  | CC(C)(C)c1ccc(C(O)CCCN2CCC(C(O)(c3ccccc3)c3ccccc3)CC2)cc1 (centres unmarked) [Terfenadine, reference compound] | 100 | 48 | 27 |  |  |  |

| Compound | IC50 ([3]; Platelet) [µM] | inhibition in vivo at 30 mg/kg [1, 7] [%] | inhibition at 10 µM [2] [%] | inhibition in vivo at 30 mg/kg [4, 8] [%] | inhibition in vivo at 30 mg/kg [1] [%] | inhibition in vivo at 30 mg/kg [4] [%] | also measured |
| --- | --- | --- | --- | --- | --- | --- | --- |
| O=C(CN1CCN(CCOC(c2ccccc2)c2ccccc2)CC1)N1CCc2cc(Cn3ccnc3)ccc21 [Example 14] | 58 |  | 45 |  | 100 | 42 |  |
| O=C(CN1CCN(CCOC(c2ccccc2)c2ccccc2)CC1)N1CCc2cc(-n3ccnc3)ccc21 [Example 8] | 2.1 |  | 55 |  | 100 | 87 |  |
| O=C(N1CCN(CCOC(c2ccccc2)c2ccccc2)CC1)N1CCc2cc(Cn3ccnc3)ccc21 [Example 12] | 18 |  | 61 |  | 100 | 64 |  |
| O=C(N1CCN(CCOC(c2ccccc2)c2ccccc2)CC1)N1CCc2cc(-n3ccnc3)ccc21 [Example 2, 1-{4-[(2-benzhydryloxyethyl)-1-piperazinyl]-carbonyl}-5-(1H-imidazol-1-yl)indoline oxalate] | 4.7 |  | 66 |  | 100 | 83 | IC50 [5]: 1.5 µM |
| O=C(O)c1ccc2c(c1)c(CCn1ccnc1)cn2CCCN1CCN(CCOC(c2ccccc2)c2ccccc2)CC1 [Example 35] | 71 |  | 100 |  | 100 | 18 |  |
